Values after ≈ are worked out from the molar mass of the structure shown.
Tests used:
[1] = Solubility of rapid solvent evaporation products in FaSSIF; assay type: physicochemical; details: fassif, thermodynamic from solid
Experimental: About 10 mg of the API control of the compound of formula A and 40 mg of the polymer carrier were transferred to 1 mL of DCM:EtOH=9:1 (v/v) to prepare a solution with 20% drug loading. The resulting clear solution was rapidly evaporated at 80° C. until there was no liquid to prepare a solid dispersion. The API control of the compound of formula A was also treated separately in the same manner.

[2] = Redispersion solubility test of solid dispersions (SGF, then SGF + 2 times volume FaSSIF); assay type: physicochemical; details: Concentration 1 mg/mL
Experimental: […] After stirring at 37° C. for 0.25 h and 0.5 h at 500 rpm, about 200 μL of the suspension was centrifuged at 14,000 rpm for 5 min, and the supernatant was diluted by 6 times with diluent for HPLC analysis. After sampling at 0.5 h, 2 times the volume of SGF of FaSSIF was immediately added to the suspension and the mixture was stirred for another 0.25 h, 0.5 h and 1.5 h, and then sampled for HPLC analysis and pH testing.

[3] = In vivo pharmacokinetic study of solid dispersions; parameters: species or system Sprague Dawley (SD) rats; details: male SD rats, intragastric 300 mg/kg (as compound of formula A), plasma
Experimental: According to Table 16, three solid dispersions, namely, formulation of API+Soluplus, formulation of API+PVP VA64 and formulation of API+HPC SSL, were selected to conduct in vivo pharmacokinetic tests with the corresponding amorphous form of API to study the pharmacokinetic characteristics of solid dispersions with different formulations in animals.
Method: solid dispersions with different formulations were evaluated with the pharmacokinetic characteristics of male Sprague Dawley (SD) rats after intragastric administration.
Materials: SD Rats (Male, 200-250 g, 6-8 Weeks Old, Zhejiang Weitong Lihua).
Steps: the solid dispersion with the formulation of Table 16 was tested by intragastric administration of 300 mg/kg (dosage calculated according to the compound of formula A) to SD rats, and the solvent was 25 mM citrate buffer pH3 containing 5% Tween 80. The animals were free to eat and drink water. Blood was collected from the jugular vein 15 min (0.25 h), 30 min (0.5 h), 60 min (1 h), 2 h, 4 h, 6 h, 8 h and 24 h after administration. Whole blood was collected in an anticoagulant tube containing EDTA-K2, and after thorough mixing, it was centrifuged at 4° C. and 4000 g for 5 minutes to separate plasma. Plasma samples were stored at −75±15° C. until the blood concentration of the compound of formula A was determined by LC-MS/MS. The relevant pharmacokinetic parameters were calculated using the non-compartmental model and linear/log trapezoidal method of Phoenix WinNonlin 6.1.

[4] = Approximate solubility test in solvents; assay type: physicochemical; details: organic solvent or mixture, thermodynamic from solid
Experimental: About 5 mg of the API control of Formula A was weighed into a 1.5 mL glass vial, and then a certain amount of different solvents (as shown in Table 1) were gradually added until the solid dissolved or the total volume reached 1 mL. The compound of formula A has a high approximate solubility in a mixed solvent of DCM and MeOH.
Different solvents have different solubility for the compound of formula A, considering the stability factor, DCM:EtOH (9:1, v/v) and acetone:water (9:1, v/v) may be used as solvent systems for the preparation of solid dispersions of the compound of formula A.

[5] = Chirality stability in solvents (other studies); assay type: physicochemical

**Q.** With O=C1CC[C@H](N2Cc3cc(C(=O)N[C@H](c4ccc(Cl)cn4)C4CCC4)ccc3C2=O)C(=O)N1 [Amorphous form of API, N—((S)-(5-chloropyridin-2-yl)(cyclobutyl)methyl)-2-((S)-2,6-dioxopiperidin-3-yl)-1-oxoisoindoline-5-carboxamide] as the molecule, how does the solubility at 0.25 h ([1]; 0.25 h) read?
**A.** 470 µg/mL (≈ 1010 µM)

**Q.** And the solubility at 0.5 h ([1]; 0.5 h)?
**A.** 490 µg/mL (≈ 1050 µM)

**Q.** And the solubility at 0.75 h ([1]; 0.75 h)?
**A.** 600 µg/mL (≈ 1290 µM)

**Q.** And the solubility at 1 h ([1]; 1 h)?
**A.** 570 µg/mL (≈ 1220 µM)

**Q.** And the solubility at 2 h ([1]; 2 h)?
**A.** 450 µg/mL (≈ 964 µM)

**Q.** What about the “End point pH” value [2] of the same molecule?
**A.** 6.55

**Q.** And the solubility at 0.75 h ([2]; SGF + 2 times volume FaSSIF, fassif, thermodynamic from solid, 37° C., read-out: Redispersion solubility, Step 2: SGF + 2 times volume FaSSIF (0.75 hr))?
**A.** 460 µg/mL

**Q.** And the solubility at 1 h ([2]; SGF + 2 times volume FaSSIF, fassif, thermodynamic from solid, 37° C., read-out: Redispersion solubility, Step 2: SGF + 2 times volume FaSSIF (1.0 hr))?
**A.** 440 µg/mL

**Q.** What about the solubility at 2 h ([2]; SGF + 2 times volume FaSSIF, pH 6.55, fassif, thermodynamic from solid, 37° C., read-out: Redispersion solubility, Step 2: SGF + 2 times volume FaSSIF (2.0 hr)) of the same molecule?
**A.** 270 µg/mL

**Q.** What about the solubility at 0.25 h ([2]; simulated gastric fluid (SGF), simulated gastric fluid, thermodynamic from solid, 37° C., read-out: Redispersion solubility, Step 1: SGF (0.25 hr)) of the same molecule?
**A.** 960 µg/mL

**Q.** What about the solubility at 0.5 h ([2]; simulated gastric fluid (SGF), simulated gastric fluid, thermodynamic from solid, 37° C., read-out: Redispersion solubility, Step 1: SGF (0.5 hr)) of the same molecule?
**A.** 980 µg/mL

**Q.** What about the AUC(0-inf) ([3]; Sprague Dawley, rat, po) of the same molecule?
**A.** 112 µg·h/mL

**Q.** And the AUC(0-t) ([3]; Sprague Dawley, rat, po)?
**A.** 111 µg·h/mL

**Q.** And the Cmax ([3]; Sprague Dawley, rat, po)?
**A.** 18700 ng/mL

**Q.** And the Tmax ([3]; Sprague Dawley, rat, po)?
**A.** 1 h

**Q.** And the half-life ([3]; Sprague Dawley, rat, po)?
**A.** 4.06 h

**Q.** And the AUClast/D [3]?
**A.** 369 ng·kg·h/mL/mg

**Q.** Which solubility ([4]; solvent ACN) does the source give for O=C1CC[C@H](N2Cc3cc(C(=O)N[C@H](c4ccc(Cl)cn4)C4CCC4)ccc3C2=O)C(=O)N1 [compound of formula A, N—((S)-(5-chloropyridin-2-yl)(cyclobutyl)methyl)-2-((S)-2,6-dioxopiperidin-3-yl)-1-oxoisoindoline-5-carboxamide] here?
**A.** < 5000 µg/mL

**Q.** What about the solubility ([4]; solvent Acetone) of the same molecule?
**A.** < 5000 µg/mL

**Q.** What about the solubility ([4]; solvent Acetone:ACN (1:1)) of the same molecule?
**A.** < 5000 µg/mL

**Q.** What about the solubility ([4]; solvent Acetone:DCM (1:1)) of the same molecule?
**A.** < 5000 µg/mL

**Q.** What about the solubility ([4]; solvent Acetone:DCM (4:1)) of the same molecule?
**A.** < 5000 µg/mL

**Q.** And the solubility ([4]; solvent Acetone:THF (1:1))?
**A.** < 5000 µg/mL

**Q.** And the solubility ([4]; solvent DCM)?
**A.** < 5000 µg/mL

**Q.** And the solubility ([4]; solvent DCM:MeOH (1:1))?
**A.** 25000 to 50000 µg/mL

**Q.** What about the solubility ([4]; solvent DCM:MeOH (2:1)) of the same molecule?
**A.** 50000 to 100000 µg/mL

**Q.** What about the solubility ([4]; solvent DCM:MeOH (4:1)) of the same molecule?
**A.** 50000 to 100000 µg/mL

**Q.** What about the solubility ([4]; solvent DCM:MeOH (5:1)) of the same molecule?
**A.** 50000 to 100000 µg/mL

**Q.** What about the solubility ([4]; solvent DCM:MeOH (7:1)) of the same molecule?
**A.** 50000 to 100000 µg/mL

**Q.** What about the solubility ([4]; solvent DCM:MeOH (9:1)) of the same molecule?
**A.** 25000 to 50000 µg/mL

**Q.** What about the solubility ([4]; solvent DCM:MeOH (99:1)) of the same molecule?
**A.** < 5000 µg/mL

**Q.** What about the solubility ([4]; solvent DCM:THF (1:1)) of the same molecule?
**A.** < 5000 µg/mL

**Q.** And the solubility ([4]; solvent DCM:THF (4:1))?
**A.** < 5000 µg/mL

**Q.** What about the solubility ([4]; solvent Ethyl acetate) of the same molecule?
**A.** < 5000 µg/mL

**Q.** And the solubility ([4]; solvent MeOH)?
**A.** < 5000 µg/mL

**Q.** What about the solubility ([4]; solvent THF) of the same molecule?
**A.** < 5000 µg/mL

**Q.** And the solubility ([4]; v/v), solvent Acetone:Water (9:1))?
**A.** 15000 to 50000 µg/mL

**Q.** What about the solubility ([4]; v/v), solvent DCM:EtOH (9:1)) of the same molecule?
**A.** 5000 to 15000 µg/mL

**Q.** And the Chirality stability ([5]; in MeOH)?
**A.** rapidly racemized

**Q.** And the Chirality stability ([5]; in acetone and ethanol)?
**A.** better chirality stability

Reference: US20260199316A1, “SOLID DISPERSION, PREPARATION METHOD THEREFOR, AND USE THEREOF” (HANGZHOU GLUBIO PHARMACEUTICAL CO., LTD, priority 2022, published 2026)
